In PubChem BioAssay AID2060899 (Molecular Pharmacology Branch, DTP, NCI, 2025):
pIC50: −log10 of the molar value.

Test system: 565726-208-R1-J5-PDC complex spheroids, growth inhibition
Assay: Anticancer human tumor 565726-208-R1-J5-PDC patient-derived pancreatic adenocarcinoma cell line growth inhibition [RAS]
Conditions: for pIC50: curve of first compound; for viability, T/C: stronger effect = lower value
Text: RAS pathway inhibitors in Combinations in Complex Spheroids
A high-throughput screen of multi-cell type tumor spheroids was designed to identify active combinations of RAS pathway inhibitors and targeted small molecules. Complex spheroids include a stromal component modeled by human endothelial cells (HUVEC) and fibroblasts modeled by human mesenchymal stem cells (MSCs). The concentration ranges selected for each drug and investigational agent were based upon clinically achievable concentrations if the clinical Cmax of the agent was known.
Compounds. The drugs and investigational agents: abemaciclib (NSC768073), cobimetinib (NSC768068), divarasib (GDC6063, NSC841802), docetaxel (NSC628503), GDC-1971 (RLY-1971, NSC841576), gemcitabine (NSC613327), inavolisib (NSC800729), ipatasertib (NSC767898), KB-0742 (NSC834161), MRTX-1133 (NSC836407), osimertinib (NSC779217), RMC-4630 (NSC839698), RMC-6236 (NSC851965), RMC-6291 (NSC852671), Ro-3306 (NSC812927), sapanisertib (NSC764658), SN-38 (NSC673596), staurosporine (NSC755774), SY5609 (NSC837396), and tovorafenib (DAY101, NSC766906), were obtained from the National Cancer Institute (NCI) Developmental Therapeutics Program Chemical Repository. The FDA-approved anticancer drug set is available from the NCI Developmental Therapeutics Program. […] The stock solutions were prepared in dimethyl sulfoxide (DMSO, Sigma-Aldrich, St. Louis, MO, cat. D2650) at 800-fold the tested concentration and stored at -70 degrees C prior to their use. All drugs and investigational agents were tested over a range starting from a high concentration at or near the clinical Cmax and decreasing in half-log increments. If the clinical Cmax for an agent had not been determined, the highest concentration tested was 10 microM.
Cell Culture. All cells were maintained in an incubator at 37 degrees C and 5% CO2 with 95% humidity. The PDC lines were cultured according to standard operating procedures established by the NCI PDMR. All PDCs were thawed and cultured in Matrigel-coated flasks prepared with a working solution of 1X Ham's F-12 nutrient mix, without supplementation (Invitrogen, Waltham, MA, cat. 11765054), 100 U/mL penicillin-streptomycin (Invitrogen, cat. 15140122), and 2.5% Matrigel (Corning Inc., Corning, NY, cat. 354248) for the first three passages. The 362531-283-R-J2-PDC and 782815-120-R-J1-PDC lines were cultured in 6C/Colon 1B media, which includes advanced DMEM/F-12 (Thermo Fisher Scientific, cat. 12634028), 10 mM HEPES (Thermo Fisher Scientific, cat. 15630080), 1X GlutaMAX supplement (Thermo Fisher Scientific, cat. 35050061), 0.1 mg/mL primocin (InvivoGen, San Diego, CA, cat. ant-pm-2), 10% defined fetal bovine serum, heat inactivated (HyClone Laboratories Inc., Logan, UT, cat. SH30070.03HI), 50% L-WRN conditioned media (ATCC, cat. CRL-3276), 1.25 mM N-Acetyl-L-cysteine (Sigma-Aldrich, cat. A9165), 10 mM nicotinamide (Sigma-Aldrich, cat. N0636), 1X B-27 supplement (Thermo Fisher Scientific, cat. 17504044), 1X N-2 supplement (Thermo Fisher Scientific, cat. 17502048), 50 ng/mL human EGF (Thermo Fisher Scientific, cat. PHG0311), and 10 microM Y-27632 dihydrochloride (Tocris Bioscience, cat. 1254). The K12877-001-R-J1-PDC line was cultured in 6I media, which includes all 6C/Colon 1B media plus 10 ng/mL human FGF-10 (PeproTech, cat. 100-26), 1 ng/mL human FGF-2 (PeproTech, cat. 100-18B), 1 µM prostaglandin E2 (Tocris Bioscience, cat. 2296), […] hydrocortisone (Sigma-Aldrich, cat. H4001), and […] bovine insulin (Sigma-Aldrich, cat. I6634). The K86415-001-R-J1-PDC line was cultured in 6D media, which includes all 6C/Colon 1B media components minus the L-WRN conditioned media. The 485176-168-R4-J1-PDC was cultured in PANC media, which includes all 6C/Colon 1B media plus 100 ng/mL human FGF-10 (PeproTech, cat. 100-26), 500 nM SB-431542 (Selleckchem, cat. S1067), and 10 nM gastrin (Tocris Bioscience, cat. 3006). […]

[1] = second compound 0.0316 µM, first compound 0.00316 µM
[2] = second compound 0.0316 µM, first compound 0.01 µM
[3] = second compound 0.0316 µM, first compound 0.0316 µM
[4] = second compound 0.0316 µM, first compound 0.1 µM
[5] = second compound 0.0316 µM, first compound 0.316 µM
[6] = second compound 0.0316 µM, first compound 1 µM
[7] = second compound 0.1 µM, first compound 0.00316 µM
[8] = second compound 0.1 µM, first compound 0.01 µM
[9] = second compound 0.1 µM, first compound 0.0316 µM
[10] = second compound 0.1 µM, first compound 0.1 µM
[11] = second compound 0.1 µM, first compound 0.316 µM
[12] = second compound 0.1 µM, first compound 1 µM
[13] = second compound 0.316 µM, first compound 0.00316 µM
[14] = second compound 0.316 µM, first compound 0.01 µM
[15] = second compound 0.316 µM, first compound 0.0316 µM
[16] = second compound 0.316 µM, first compound 0.1 µM
[17] = second compound 0.316 µM, first compound 0.316 µM
[18] = second compound 0.316 µM, first compound 1 µM
[19] = second compound 1 µM, first compound 0.00316 µM
[20] = second compound 1 µM, first compound 0.01 µM
[21] = second compound 1 µM, first compound 0.0316 µM
[22] = second compound 1 µM, first compound 0.1 µM
[23] = second compound 1 µM, first compound 0.316 µM
[24] = second compound 1 µM, first compound 1 µM
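Further: spheroids exposed to compounds for seven days before readout.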
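Wherever viability, T/C is given: 100% = DMSO vehicle control viability.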

Compound `CCN1CCN(Cc2ccc(Nc3ncc(F)c(-c4cc(F)c5nc(C)n(C(C)C)c5c4)n3)nc2)CC1` + C#Cc1c(F)ccc2cc(O)cc(-c3ncc4c(N5CC6CCC(C5)N6)nc(OCC56CCCN5CC(F)C6)nc4c3F)c12 has a pIC50 (second compound 0.0316 µM) of less than 6.00, a pIC50 (second compound 0.1 µM) of less than 6.00 and a pIC50 (second compound 0.316 µM) of less than 6.00. For the same compound, the pIC50 (second compound 1 µM) was less than 6.00, the pIC50 (second compound 3.16 µM) was 7.03 and the pIC50 (second compound 10 µM) was 7.21. For the same compound, the viability, T/C [1] was 83.6%, the viability, T/C [2] was 130% and the viability, T/C [3] was 74.6%. For the same compound, the viability, T/C [4] was 79.2%, the viability, T/C [5] was 86.8% and the viability, T/C [6] was 89.1%. The viability, T/C [7] was 109%, the viability, T/C [8] was 122% and the viability, T/C [9] was 75.6%. The viability, T/C [10] was 66.9%, the viability, T/C [11] was 76.5% and the viability, T/C [12] was 101%. It also gave a viability, T/C [13] of 116%, a viability, T/C [14] of 143% and a viability, T/C [15] of 67.8%. For the same compound, the viability, T/C [16] was 64.1%, the viability, T/C [17] was 77.5% and the viability, T/C [18] was 82.4%. For the same compound, the viability, T/C [19] was 127%, the viability, T/C [20] was 115% and the viability, T/C [21] was 87%. For the same compound, the viability, T/C [22] was 61.2%, the viability, T/C [23] was 46.8% and the viability, T/C [24] was 72.5%. For the same compound, the viability, T/C (second compound 3.16 µM, first compound 0.00316 µM) was 99.1%, the viability, T/C (second compound 3.16 µM, first compound 0.01 µM) was 105% and the viability, T/C (second compound 3.16 µM, first compound 0.0316 µM) was 57.6%. It also gave a viability, T/C (second compound 3.16 µM, first compound 0.1 µM) of 56.6%, a viability, T/C (second compound 3.16 µM, first compound 0.316 µM) of 46.2% and a viability, T/C (second compound 3.16 µM, first compound 1 µM) of 45.6%. For the same compound, the viability, T/C (second compound 10 µM, first compound 0.00316 µM) was 87.7%, the viability, T/C (second compound 10 µM, first compound 0.01 µM) was 78.5% and the viability, T/C (second compound 10 µM, first compound 0.0316 µM) was 56.9%. It also gave a viability, T/C (second compound 10 µM, first compound 0.1 µM) of 41.4%, a viability, T/C (second compound 10 µM, first compound 0.316 µM) of 44.3% and a viability, T/C (second compound 10 µM, first compound 1 µM) of 28.9%.
Compound `Nc1ccn(C2OC(CO)C(O)C2(F)F)c(=O)n1` (centres undefined) + C=CC(=O)N1CCN(c2nc(OCC3CCCN3C)nc3c(F)c(-c4nc(N)cc(C)c4C(F)(F)F)c(Cl)cc23)C(C)C1 has a pIC50 (second compound 0.00316 µM) of 7.02, a pIC50 (second compound 0.01 µM) of 7.03 and a pIC50 (second compound 0.0316 µM) of less than 6.00. It also gave a pIC50 (second compound 0.1 µM) of 6.64, a pIC50 (second compound 0.316 µM) of 7.05 and a pIC50 (second compound 1 µM) of 6.00. The viability, T/C (second compound 0.00316 µM, first compound 0.00316 µM) was 89.3%, the viability, T/C (second compound 0.00316 µM, first compound 0.01 µM) was 151% and the viability, T/C (second compound 0.00316 µM, first compound 0.0316 µM) was 76.5%. It also gave a viability, T/C (second compound 0.00316 µM, first compound 0.1 µM) of 54.6%, a viability, T/C (second compound 0.00316 µM, first compound 0.316 µM) of 52.6% and a viability, T/C (second compound 0.00316 µM, first compound 1 µM) of 39%. The viability, T/C (second compound 0.01 µM, first compound 0.00316 µM) was 113%, the viability, T/C (second compound 0.01 µM, first compound 0.01 µM) was 149% and the viability, T/C (second compound 0.01 µM, first compound 0.0316 µM) was 84.9%. For the same compound, the viability, T/C (second compound 0.01 µM, first compound 0.1 µM) was 48%, the viability, T/C (second compound 0.01 µM, first compound 0.316 µM) was 50.5% and the viability, T/C (second compound 0.01 µM, first compound 1 µM) was 44.8%. For the same compound, the viability, T/C [1] was 148%, the viability, T/C [2] was 160% and the viability, T/C [3] was 77.1%. For the same compound, the viability, T/C [4] was 59.4%, the viability, T/C [5] was 48.9% and the viability, T/C [6] was 49%. It also gave a viability, T/C [7] of 156%, a viability, T/C [8] of 134% and a viability, T/C [9] of 89.5%. For the same compound, the viability, T/C [10] was 58.1%, the viability, T/C [11] was 47.5% and the viability, T/C [12] was 46.3%. The viability, T/C [13] was 139%, the viability, T/C [14] was 134% and the viability, T/C [15] was 72.7%. It also gave a viability, T/C [16] of 46.4%, a viability, T/C [17] of 52.7% and a viability, T/C [18] of 41.5%. It also gave a viability, T/C [19] of 153%, a viability, T/C [20] of 142% and a viability, T/C [21] of 82.3%. The viability, T/C [22] was 58.3%, the viability, T/C [23] was 55.3% and the viability, T/C [24] was 45.6%.
